The values below come from ChEMBL document CHEMBL1201862, “PubChem BioAssay data set” (2004).

Assay [1] deals with T1, Eukaryotic translation initiation factor 4H (Homo sapiens, UniProt Q15056). In words: eIF4H binding inhibition – biochemical, uHTS, fluorescence polarization, translation initiation inhibitor project, primary screen (AID 2012). (Polarisation of emitted light reports the rotation of a fluorescent probe.)
The target in assay [2] is T2, Polyadenylate-binding protein 1 (Homo sapiens, UniProt P11940). Nature of the assay: blockers of PABP interaction with poly(A) – biochemical, fluorescence polarization, […] (AID 2014).
Assay [3] deals with T1, Eukaryotic translation initiation factor 4H. Nature of the assay: inhibitors of translation initiation factor eIF4H – SAR follow-up (AID 435011). Type of assay: functional.
The target in assay [4] is T2, Polyadenylate-binding protein 1. Nature of the assay: PABP inhibition in translation initiation, SAR follow-up (AID 435018). Type of assay: functional.
Assay [5] concerns the target Acyl-homoserine lactone acylase PvdQ (Pseudomonas aeruginosa (strain LESB58), UniProt Q9I194). Nature of the assay: PvdQ acylase enzyme activity blockers – biochemical, fluorescence, plate reader and imaging, cherry-picks, dose response (AID 493231).
For assay [6], the target named is Transitional endoplasmic reticulum ATPase (Homo sapiens, UniProt P55072, C522A). Nature of the assay: C522A mutant p97 ATPase inhibitors, dose response, counter-screen for p97 inhibitor project, biochemical, luminescence (AID 1544). On the technique in general: A counterscreen serves to expose hits that act by an unwanted route or on another target.
The target of assay [7] is Transitional endoplasmic reticulum ATPase (Homo sapiens, UniProt P55072). In words: p97 ATPase inhibitors, dose response, biochemical (AID 1534).
The nature of assay [8]: antiviral protection against BTV-induced cell death – arbovirus, BSR cells, confirmation (AID 1250).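 Further: protection from viral cytopathic effect measured as cell viability by ATP luminescence.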 Type of assay: functional.
Assay [9] concerns the target Heat shock protein HSP 90-alpha (Homo sapiens, UniProt P07900). The class given is functional, organism-based.
Assay [10] can be described thus: NIH-3T3 fibroblast cytotoxicity, dose response, cytotoxicity control, cell-based, fluorescence, Alamar Blue, secondary assay (AID 2327).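 Further: NIH-3T3 mouse fibroblasts cultured with fluconazole at 8 µg/mL.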 Type of assay: functional. On the technique in general: Alamar Blue is a resazurin reagent that responds to reducing activity.
Assay [11] concerns BJ. In words: BJ-TERT fibroblast viability loss – cell-based, RAS-independent, luminescence, dose response (AID 1933). The class given is functional. The following applies: Homo sapiens.
Assay [12] deals with H4. Nature of the assay: Luminescence Cell-Based Dose Response HTS to Identify Activators of 5'UTR Stem-Loop Driven Prion Protein mRNA Translation in H4 Neuroglioblastoma Cells. [Related pubchem assays: 1829 (Project Summary), 1814 (Primary HTS)]. Type of assay: functional. To be noted: Homo sapiens.
Assay [13] has as its system Vero. In words: mammalian cell viability reduction – secondary assay, cytotoxicity control for West Nile virus antiviral project, dose response (AID 1650). The following applies: Chlorocebus sabaeus. Type of assay: functional.
Assay [14] has as its system BJ. Nature of the assay: cells. Type of assay: functional, cell-based. The following applies: Homo sapiens.
Assay [15] in a line: fluconazole-exposed Candida albicans growth modulators – fluorescence, retest, confirmation (AID 2467). The class given is functional, cell-based.
Assay [16] deals with T3, Serine/threonine-protein phosphatase (Candida dubliniensis (strain CD36 / CBS 7987 / NCPF 3949 / NRRLY-17841) (Yeast), UniProt B9W6M3).
T3 sequence (B9W6M3 whole entry): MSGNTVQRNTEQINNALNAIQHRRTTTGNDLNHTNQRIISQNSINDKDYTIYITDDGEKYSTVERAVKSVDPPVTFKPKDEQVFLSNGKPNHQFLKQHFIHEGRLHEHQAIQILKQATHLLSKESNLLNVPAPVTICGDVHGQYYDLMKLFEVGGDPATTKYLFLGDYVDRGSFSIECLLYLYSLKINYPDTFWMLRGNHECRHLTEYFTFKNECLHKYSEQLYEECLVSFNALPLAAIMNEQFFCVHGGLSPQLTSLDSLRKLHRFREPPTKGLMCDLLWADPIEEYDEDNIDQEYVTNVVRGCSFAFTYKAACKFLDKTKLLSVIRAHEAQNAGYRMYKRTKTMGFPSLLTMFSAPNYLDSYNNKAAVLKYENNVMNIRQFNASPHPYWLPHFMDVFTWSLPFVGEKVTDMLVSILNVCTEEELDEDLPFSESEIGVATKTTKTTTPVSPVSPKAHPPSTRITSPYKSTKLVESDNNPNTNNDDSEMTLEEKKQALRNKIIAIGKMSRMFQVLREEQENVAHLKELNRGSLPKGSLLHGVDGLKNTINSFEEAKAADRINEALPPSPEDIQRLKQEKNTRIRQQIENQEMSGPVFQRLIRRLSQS
Nature of the assay: blockers of CaCl2-induced CDRE-lacZ signaling – S. cerevisiae, luminescence, secondary, dose response (AID 2388).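 Further: yeast reporter cells carrying a calcineurin-responsive lacZ construct stimulated with calcium chloride; luminescent beta-galactosidase reporter signal in whole cells rather than isolated phosphatase activity; potency for inhibition where a drop in reporter signal means calcineurin blockade.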 The class given is functional, cell-based.

In assay [17] the test system is BJ. Nature of the assay: BJ-TERT-LT-ST fibroblast viability loss – cell-based, RAS-independent, luminescence, dose response (AID 1935).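 Further: BJ fibroblasts immortalized with TERT plus LT and ST oncogenes.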 The class given is functional. To be noted: Homo sapiens.
Assay [18] in a line: DRD fibroblast viability loss – cell-based, non-viral oncogenic, luminescence, dose response (AID 1934). The class given is functional. The following applies: Homo sapiens.
In assay [19] the target is NACHT, LRR and PYD domains-containing protein 3 (Homo sapiens, UniProt Q96P20). In words: NALP3 inhibitors in yeast, dose response, luminescent (AID 488799). The class given is functional.
For assay [20], the system named is Jurkat. Nature of the assay: blockers of NF-kB activation in T cells – Jurkat, luciferase reporter, luminescence, B- and T-cell, dose response (AID 489004).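 Further: NF-kB luciferase reporter Jurkat cells stimulated with PMA plus ionomycin.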 The class given is functional, cell-based. The following applies: Homo sapiens.
A short description of assay [21]: HEK-293T viability loss, compound-treated – cell-based, uHTS hits, cytotoxicity control for B/T-cell NF-kB inhibitor project, dose response (AID 489019).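 Further: IC50 reflects cytotoxicity as loss of cell viability.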 Type of assay: functional.
In assay [22] the test system is Vero. In words: cells. The class given is functional. The following applies: Chlorocebus sabaeus.
The nature of assay [23]: reduction of Shn3 3'UTR-driven luciferase in osteoblasts – cell-based, Clone20 osteoblasts, firefly luciferase, cherry-picked, dose response (AID 624132).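 Further: firefly luciferase luminescence from reporter carrying the Shn3 3'UTR in osteoblasts.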 The class given is functional.
A short description of assay [24]: loss of viability in HepG2 cells – cell-based, CellTiter-Glo, cherry-picked, cytotoxicity control for Shn3 inhibitor project, dose response (AID 624134). The class given is functional.
Assay [25] can be described thus: non-specific 3'UTR reporter inhibition in Clone20-Shn3RL – cell-based, Renilla luciferase, cherry-picked, counter-screen for Shn3 inhibitor project, dose response (AID 624133). The class given is functional.
Assay [26] can be described thus: non-PhoP GFP expression and growth suppression – purified and synthesized compounds, set 2, counter-screen for PhoP regulon inhibitor project, dose response (AID 2834). The class given is functional.
The target of assay [27] is T4, Tyrosine-protein phosphatase non-receptor type 7 (Homo sapiens, UniProt P35236).
T4 sequence (P35236 whole entry): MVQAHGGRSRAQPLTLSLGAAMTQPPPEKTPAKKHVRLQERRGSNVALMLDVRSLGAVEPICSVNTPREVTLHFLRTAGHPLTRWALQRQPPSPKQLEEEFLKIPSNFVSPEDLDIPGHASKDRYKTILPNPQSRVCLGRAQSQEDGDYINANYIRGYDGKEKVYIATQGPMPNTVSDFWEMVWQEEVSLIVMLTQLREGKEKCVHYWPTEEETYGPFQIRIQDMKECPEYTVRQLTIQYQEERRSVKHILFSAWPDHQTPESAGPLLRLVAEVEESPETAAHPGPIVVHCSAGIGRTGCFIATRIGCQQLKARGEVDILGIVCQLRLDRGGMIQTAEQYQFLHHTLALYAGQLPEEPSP
Type of assay: functional.

The target in assay [28] is Glyceraldehyde-3-phosphate dehydrogenase (Homo sapiens, UniProt P04406).
The target of assay [29] is Heat shock cognate 71 kDa protein (Homo sapiens, UniProt P11142). Nature of the assay: In Vitro Hsc70 Dose Response Fluorescence Polarization Assay. [Related pubchem assays: 1072 ].
For assay [30], the target named is Heat shock 70 kDa protein 1A (Homo sapiens, UniProt P0DMV8). In words: inhibition of Hsp70 binding activity – biochemical, fluorescence polarization, SAR follow-up (AID 1072).
Assay [31] addresses T5, Dual specificity protein phosphatase 6 (Rattus norvegicus, UniProt Q64346).
T5 sequence (Q64346 whole entry): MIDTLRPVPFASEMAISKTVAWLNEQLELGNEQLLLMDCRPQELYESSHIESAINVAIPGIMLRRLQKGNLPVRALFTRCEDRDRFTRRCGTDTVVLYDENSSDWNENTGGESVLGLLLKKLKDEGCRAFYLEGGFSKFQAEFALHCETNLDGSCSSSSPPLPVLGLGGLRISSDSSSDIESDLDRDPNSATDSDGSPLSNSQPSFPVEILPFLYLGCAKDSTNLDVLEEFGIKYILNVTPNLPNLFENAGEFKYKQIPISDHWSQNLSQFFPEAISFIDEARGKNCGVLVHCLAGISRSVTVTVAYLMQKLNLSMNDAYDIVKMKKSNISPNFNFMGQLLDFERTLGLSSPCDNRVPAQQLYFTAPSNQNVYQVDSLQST

Assay [32] deals with T6, Alkaline phosphatase, tissue-nonspecific isozyme (Homo sapiens, UniProt P05186).
T6 sequence (P05186 whole entry): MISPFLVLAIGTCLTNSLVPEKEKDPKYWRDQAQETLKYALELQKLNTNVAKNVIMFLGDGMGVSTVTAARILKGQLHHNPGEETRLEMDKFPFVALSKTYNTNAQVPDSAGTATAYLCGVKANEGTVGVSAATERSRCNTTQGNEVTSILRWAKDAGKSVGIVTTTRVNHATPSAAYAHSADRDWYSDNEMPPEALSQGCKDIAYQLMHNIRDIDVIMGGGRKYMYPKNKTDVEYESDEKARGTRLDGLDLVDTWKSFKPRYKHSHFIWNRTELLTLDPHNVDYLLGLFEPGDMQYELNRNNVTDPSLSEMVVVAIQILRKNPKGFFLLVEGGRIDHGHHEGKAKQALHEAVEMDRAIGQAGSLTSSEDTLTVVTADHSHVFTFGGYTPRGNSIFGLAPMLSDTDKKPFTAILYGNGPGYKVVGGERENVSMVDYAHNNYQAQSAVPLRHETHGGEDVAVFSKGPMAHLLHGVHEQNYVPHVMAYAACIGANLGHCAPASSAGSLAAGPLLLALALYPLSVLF
In words: potency against alkaline phosphatase TNAP – biochemical, luminescent, dose response, SAR follow-up (AID 1056).

The target of assay [33] is T5, Dual specificity protein phosphatase 6. The class given is functional.

Active and inactive are the calls of the source.

T2 sequence (P11940 whole entry): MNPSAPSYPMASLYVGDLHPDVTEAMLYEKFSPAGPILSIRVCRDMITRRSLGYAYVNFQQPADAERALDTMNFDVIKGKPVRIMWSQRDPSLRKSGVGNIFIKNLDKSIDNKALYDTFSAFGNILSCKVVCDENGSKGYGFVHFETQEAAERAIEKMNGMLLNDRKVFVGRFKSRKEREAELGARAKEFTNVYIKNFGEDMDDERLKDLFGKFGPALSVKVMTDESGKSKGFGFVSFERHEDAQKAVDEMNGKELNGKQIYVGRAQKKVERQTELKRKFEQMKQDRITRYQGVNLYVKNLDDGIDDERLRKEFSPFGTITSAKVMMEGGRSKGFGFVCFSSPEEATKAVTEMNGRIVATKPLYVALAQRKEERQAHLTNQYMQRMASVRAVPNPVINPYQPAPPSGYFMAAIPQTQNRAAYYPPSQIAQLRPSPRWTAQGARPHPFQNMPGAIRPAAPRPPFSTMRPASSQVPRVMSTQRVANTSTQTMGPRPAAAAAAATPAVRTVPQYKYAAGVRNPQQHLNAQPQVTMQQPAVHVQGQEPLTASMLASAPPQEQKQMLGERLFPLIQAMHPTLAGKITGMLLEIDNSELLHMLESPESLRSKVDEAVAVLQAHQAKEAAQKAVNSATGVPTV
NACHT, LRR and PYD domains-containing protein 3, sequence (Q96P20 whole entry, the tested form may be a part): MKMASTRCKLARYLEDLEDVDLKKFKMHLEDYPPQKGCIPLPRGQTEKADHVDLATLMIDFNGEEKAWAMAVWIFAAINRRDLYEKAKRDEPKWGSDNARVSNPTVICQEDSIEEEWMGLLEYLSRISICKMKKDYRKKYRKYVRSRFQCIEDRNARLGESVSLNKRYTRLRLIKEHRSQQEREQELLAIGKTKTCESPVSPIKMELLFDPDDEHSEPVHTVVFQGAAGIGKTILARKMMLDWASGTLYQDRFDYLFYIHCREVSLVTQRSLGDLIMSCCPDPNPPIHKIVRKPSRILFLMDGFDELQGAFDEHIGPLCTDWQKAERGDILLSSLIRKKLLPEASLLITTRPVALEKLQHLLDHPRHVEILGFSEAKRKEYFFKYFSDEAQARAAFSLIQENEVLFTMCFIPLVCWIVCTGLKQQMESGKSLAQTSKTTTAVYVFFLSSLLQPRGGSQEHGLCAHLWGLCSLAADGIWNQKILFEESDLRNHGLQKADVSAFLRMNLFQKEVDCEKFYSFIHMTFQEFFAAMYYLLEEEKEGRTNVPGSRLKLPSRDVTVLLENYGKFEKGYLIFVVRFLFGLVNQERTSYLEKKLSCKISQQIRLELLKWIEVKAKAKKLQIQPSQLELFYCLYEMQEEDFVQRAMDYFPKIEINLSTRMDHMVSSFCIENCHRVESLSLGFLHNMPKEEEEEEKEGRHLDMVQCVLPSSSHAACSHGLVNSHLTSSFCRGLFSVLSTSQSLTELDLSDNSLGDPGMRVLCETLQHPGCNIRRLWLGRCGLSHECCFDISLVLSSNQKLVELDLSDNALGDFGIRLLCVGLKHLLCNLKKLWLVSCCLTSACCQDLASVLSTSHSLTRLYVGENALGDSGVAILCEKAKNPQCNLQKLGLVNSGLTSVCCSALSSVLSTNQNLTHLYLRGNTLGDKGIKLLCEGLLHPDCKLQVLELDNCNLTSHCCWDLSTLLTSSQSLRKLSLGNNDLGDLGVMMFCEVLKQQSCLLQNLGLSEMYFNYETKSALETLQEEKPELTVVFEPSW
Glyceraldehyde-3-phosphate dehydrogenase, sequence (P04406 whole entry): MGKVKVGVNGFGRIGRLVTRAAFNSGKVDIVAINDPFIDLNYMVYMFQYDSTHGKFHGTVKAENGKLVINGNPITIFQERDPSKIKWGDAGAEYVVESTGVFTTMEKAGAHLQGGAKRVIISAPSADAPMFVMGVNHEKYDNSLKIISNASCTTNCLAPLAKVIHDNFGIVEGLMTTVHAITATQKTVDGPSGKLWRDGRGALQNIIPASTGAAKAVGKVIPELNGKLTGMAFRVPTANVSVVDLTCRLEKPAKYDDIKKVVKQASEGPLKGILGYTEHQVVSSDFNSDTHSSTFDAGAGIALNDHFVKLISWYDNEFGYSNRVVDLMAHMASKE
Heat shock cognate 71 kDa protein, sequence (P11142 whole entry): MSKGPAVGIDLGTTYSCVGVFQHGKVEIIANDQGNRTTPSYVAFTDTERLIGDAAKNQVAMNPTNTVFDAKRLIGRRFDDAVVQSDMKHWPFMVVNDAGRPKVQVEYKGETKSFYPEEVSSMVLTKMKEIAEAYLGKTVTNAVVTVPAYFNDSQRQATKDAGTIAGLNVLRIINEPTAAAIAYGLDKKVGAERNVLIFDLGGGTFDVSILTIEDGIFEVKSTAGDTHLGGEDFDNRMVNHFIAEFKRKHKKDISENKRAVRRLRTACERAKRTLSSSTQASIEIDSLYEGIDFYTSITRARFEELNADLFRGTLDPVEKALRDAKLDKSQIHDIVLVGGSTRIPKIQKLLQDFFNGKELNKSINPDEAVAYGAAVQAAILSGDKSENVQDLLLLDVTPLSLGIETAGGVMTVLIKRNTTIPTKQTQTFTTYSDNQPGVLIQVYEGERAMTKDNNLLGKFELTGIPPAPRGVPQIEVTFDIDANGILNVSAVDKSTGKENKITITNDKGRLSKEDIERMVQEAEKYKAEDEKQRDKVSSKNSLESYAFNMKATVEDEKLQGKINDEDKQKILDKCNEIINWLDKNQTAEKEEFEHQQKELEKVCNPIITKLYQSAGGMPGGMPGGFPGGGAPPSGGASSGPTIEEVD
Transitional endoplasmic reticulum ATPase (Homo sapiens, UniProt P55072, C522A), sequence (P55072 2-806 C522A limits assumed): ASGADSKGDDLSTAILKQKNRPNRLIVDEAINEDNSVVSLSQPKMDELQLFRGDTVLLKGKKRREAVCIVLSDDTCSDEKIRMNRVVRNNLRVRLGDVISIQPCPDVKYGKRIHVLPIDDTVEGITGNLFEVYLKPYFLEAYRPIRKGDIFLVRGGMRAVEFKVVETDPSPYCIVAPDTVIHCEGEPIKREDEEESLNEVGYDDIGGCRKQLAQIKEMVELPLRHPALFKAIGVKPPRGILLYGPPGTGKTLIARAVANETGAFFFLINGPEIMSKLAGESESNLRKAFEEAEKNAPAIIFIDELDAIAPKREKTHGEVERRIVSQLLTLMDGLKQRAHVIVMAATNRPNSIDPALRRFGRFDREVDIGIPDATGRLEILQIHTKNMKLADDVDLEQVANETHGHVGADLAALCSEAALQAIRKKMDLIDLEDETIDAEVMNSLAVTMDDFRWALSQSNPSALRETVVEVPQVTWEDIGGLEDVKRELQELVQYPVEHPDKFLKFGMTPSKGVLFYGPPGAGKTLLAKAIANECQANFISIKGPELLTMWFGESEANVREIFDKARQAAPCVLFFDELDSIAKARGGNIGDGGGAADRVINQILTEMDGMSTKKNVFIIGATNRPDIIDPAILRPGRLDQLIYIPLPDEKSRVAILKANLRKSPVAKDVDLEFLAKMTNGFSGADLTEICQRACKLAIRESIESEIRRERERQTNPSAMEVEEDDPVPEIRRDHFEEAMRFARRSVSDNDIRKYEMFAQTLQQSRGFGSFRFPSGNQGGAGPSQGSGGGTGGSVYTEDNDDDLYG
Transitional endoplasmic reticulum ATPase (Homo sapiens, UniProt P55072), sequence (P55072 whole entry): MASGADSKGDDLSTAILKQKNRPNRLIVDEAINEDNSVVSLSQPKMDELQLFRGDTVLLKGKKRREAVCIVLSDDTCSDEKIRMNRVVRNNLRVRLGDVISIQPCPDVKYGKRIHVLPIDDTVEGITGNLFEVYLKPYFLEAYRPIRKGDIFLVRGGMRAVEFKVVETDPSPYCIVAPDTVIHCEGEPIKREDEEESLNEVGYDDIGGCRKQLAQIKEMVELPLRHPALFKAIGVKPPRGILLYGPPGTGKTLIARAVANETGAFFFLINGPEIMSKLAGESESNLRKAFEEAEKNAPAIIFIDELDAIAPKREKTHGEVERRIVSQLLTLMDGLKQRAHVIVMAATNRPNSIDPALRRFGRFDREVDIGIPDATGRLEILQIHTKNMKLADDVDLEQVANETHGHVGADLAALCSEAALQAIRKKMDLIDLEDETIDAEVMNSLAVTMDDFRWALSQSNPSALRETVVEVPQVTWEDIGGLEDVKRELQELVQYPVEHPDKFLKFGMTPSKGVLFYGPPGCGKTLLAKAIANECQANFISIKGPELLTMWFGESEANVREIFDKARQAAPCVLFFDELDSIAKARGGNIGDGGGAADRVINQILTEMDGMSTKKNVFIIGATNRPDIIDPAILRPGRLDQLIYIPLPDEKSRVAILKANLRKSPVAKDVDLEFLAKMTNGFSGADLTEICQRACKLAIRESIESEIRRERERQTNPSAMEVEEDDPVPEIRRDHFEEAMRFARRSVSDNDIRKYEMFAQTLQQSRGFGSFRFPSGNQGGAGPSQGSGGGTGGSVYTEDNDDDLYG

By IC50 is commonly meant the concentration that gives 50% inhibition. In the case of `CCn1c(=O)n(CC)c2cc(NC(=O)C(C)c3ccccc3)c(Br)cc21` (stereo not drawn), the IC50 is > 100 µM (inactive) in assay [1], 21.5 µM (active) in [2], > 100 µM (inactive) in [3] and 9.4 µM (active) in assay [4].

Usually AC50 stands for the concentration at which the activity in the assay is half-maximal. On to `O=C1N[C@@H](Cc2ccccc2)[C@@H](c2ccco2)O1`, for which, in assay [5], the AC50 is 7.07 µM (active).

Take `O=C(O)c1cccc(NN=C2c3ccccc3-c3ccccc32)c1`: the results for the IC50 in assay [6], in assay [7] and in assay [8] were > 50 µM (not active), 50 µM (not active) and 23.9 µM (active), respectively. Also, in assay [9], the AC50 was 8.32 µM (active).

The term EC50 denotes the midpoint of the concentration-response curve. The CC50 is the concentration that lowers cell viability or growth by half. As for `C[C@@H]1C[C@@H]2O[C@H]2/C=C\C=C\C(=O)Cc2c(Cl)c(O)cc(O)c2C(=O)O1`, the EC50 is 44.5 µM (inconclusive) in assay [10]; 21 µM (active) in [11]; > 120 µM (not active) in [12]; 0.309 µM (active) in [14]; 0.049 µM (active) in assay [15]; > 180 µM (inactive) in assay [16]. Further, the EC50 in assay [17] is 1.81 µM (active); in [18] it was 2.08 µM (active). Further, the CC50 in [13] is 3.11 µM (active); in [22], 15.8 µM (active). The figures for the concentration for half-maximal inhibition (IC50) in assay [19], in assay [20] and in assay [21] were 8.41 µM (active), 0.21 µM (active) and > 80 µM (inactive), respectively. The AC50 in assay [23] was 6.4 µM (active); in assay [24] it was 49.8 µM (active); in assay [25], 12.3 µM (active).

Turning to `O=C1C2=C(Nc3ccccc3SC2c2ccc(I)cc2)c2ccccc21` (stereo not drawn), the IC50 in [26] is 232 µM (active).

With `O=C(O)c1ccc(N2C(=O)c3ccccc3C2=O)cc1`, the IC50 in assay [27] is > 100 µM (not active); in assay [28], > 100 µM (not active); in assay [29], > 100 µM (not active); in assay [30] it was > 100 µM (not active); in [31], > 100 µM (inactive); in assay [32], > 100 µM (inactive). Further, the IC50 in assay [33] is > 100 µM (inactive).
